Laboratory results as given in patent US20230167073A1 (Teijin Pharma Limited, priority 2020, published 2023).

Molecular target: T1, Human TRPC6 (Homo sapiens, UniProt Q9Y210)
T1 construct: expressed in transfected cells
T1 sequence (Q9Y210 1-931): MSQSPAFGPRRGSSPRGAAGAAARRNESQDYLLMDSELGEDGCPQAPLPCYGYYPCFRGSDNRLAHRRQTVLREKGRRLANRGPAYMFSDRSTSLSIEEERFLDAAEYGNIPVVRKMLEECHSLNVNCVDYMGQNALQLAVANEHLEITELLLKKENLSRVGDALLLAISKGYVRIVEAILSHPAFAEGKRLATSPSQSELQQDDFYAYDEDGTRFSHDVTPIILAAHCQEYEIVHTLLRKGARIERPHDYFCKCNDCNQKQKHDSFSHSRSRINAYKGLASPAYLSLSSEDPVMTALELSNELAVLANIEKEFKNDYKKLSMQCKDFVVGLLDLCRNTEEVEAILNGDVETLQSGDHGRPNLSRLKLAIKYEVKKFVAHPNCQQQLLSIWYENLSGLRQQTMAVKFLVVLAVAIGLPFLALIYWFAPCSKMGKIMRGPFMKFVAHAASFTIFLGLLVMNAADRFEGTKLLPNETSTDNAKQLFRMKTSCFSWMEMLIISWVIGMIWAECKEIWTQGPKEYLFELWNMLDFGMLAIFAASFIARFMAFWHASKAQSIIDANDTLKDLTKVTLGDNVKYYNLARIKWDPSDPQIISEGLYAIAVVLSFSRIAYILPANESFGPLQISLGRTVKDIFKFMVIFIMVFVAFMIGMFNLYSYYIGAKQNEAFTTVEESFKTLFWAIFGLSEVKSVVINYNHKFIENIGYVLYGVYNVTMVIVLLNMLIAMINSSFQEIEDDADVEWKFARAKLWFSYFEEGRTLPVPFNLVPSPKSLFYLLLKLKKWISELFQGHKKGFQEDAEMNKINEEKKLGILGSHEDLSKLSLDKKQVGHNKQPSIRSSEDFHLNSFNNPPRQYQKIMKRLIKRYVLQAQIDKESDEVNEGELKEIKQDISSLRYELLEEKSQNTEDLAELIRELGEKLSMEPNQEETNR
Assay: Evaluation of TRPC6 channel inhibitory activity (1), FLIPR Calcium 5 Assay Kit, OAG stimulation (Compound Nos. 1-1293)
Assay type: cell-based
Conditions: not given
How it was run: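 Readout is pIC50 from four-parameter logistic fitting of inhibition of the OAG-evoked (30 μM final) fluorescence calcium signal. Human TRPC6 stable cells are dye-loaded with probenecid, and compound is applied 20 min ahead of agonist.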

SMILES | IC50 [nM]
Cc1nc(Oc2cc(C#N)ccc2-n2cc(C3=CCNCC3)cn2)cc(C2CCCC2)n1 [Compound 221, 3-(6-cyclopentyl-2-methylpyrimidin-4-yl)oxy-4-[4-(1,2,3,6-tetrahydropyridin-4-yl)pyrazol-1-yl]benzonitrile] | 10 to 1000

Same assay, conditions: Human TRPC6 stably-expressing cells, OAG 30 μM, FLIPR Calcium 5 Assay Kit; read-out: Inhibitory activity (pIC50 class) (converted)

SMILES | IC50 [nM]
Cc1cc(Oc2cc(C#N)ccc2-c2ccc([C@H](O)CN)cn2)cc(-c2ncco2)n1 [compound 690, 4-[5-[(1S)-2-amino-1-hydroxyethyl]pyridin-2-yl]-3-[2-methyl-6-(1,3-oxazol-2-yl)pyridin-4-yl]oxybenzonitrile] | 10 to 1000
Cn1nc(C2CC2)cc1Oc1cc(C#N)ccc1-c1cccn2c(CN)nnc12 [compound 515, 4-[3-(aminomethyl)-[1,2,4]triazolo[4,3-a]pyridin-8-yl]-3-(5-cyclopropyl-2-methylpyrazol-3-yl)oxybenzonitrile] | 10 to 1000
Cc1cc(Oc2cc(C#N)ccc2-c2ccc(CCN)cn2)cc(N2CCNC(=O)C2)n1 [compound 456, 4-[5-(2-aminoethyl)pyridin-2-yl]-3-[2-methyl-6-(3-oxopiperazin-1-yl)pyridin-4-yl]oxybenzonitrile] | > 1000
CCN(CC)c1cc(C(=O)c2cc(C#N)ccc2-c2ncc(CCN)cn2)n(C)n1 [compound 1032, 4-[5-(2-aminoethyl)pyrimidin-2-yl]-3-[5-(diethylamino)-2-methylpyrazole-3-carbonyl]benzonitrile] | < 10
Cc1ccccc1-c1cn(Cc2cc(C#N)ccc2-c2ccc(CCN)cn2)cn1 [compound 1145, 4-[5-(2-aminoethyl)pyridin-2-yl]-3-[[4-(2-methylphenyl)imidazol-1-yl]methyl]benzonitrile] | < 10
N#Cc1ccc(-c2ccc(CCN)cn2)c(Oc2cnnc(-c3ccccc3)c2)c1 [Compound 103, 4-[5-(2-aminoethyl)pyridin-2-yl]-3-(6-phenylpyridazin-4-yl)oxybenzonitrile] | 10 to 1000
Cc1cc(Oc2cc(C#N)ccc2-c2ccc(C(C)N)cn2)cc(N2CCOCC2)n1 (stereo not drawn) [compound 398, 4-[5-(1-aminoethyl)pyridin-2-yl]-3-(2-methyl-6-morpholin-4-ylpyridin-4-yl)oxybenzonitrile] | < 10
Cc1nc(Oc2cc(C#N)ccc2-n2cc([C@H](O)CN)cn2)cc(-c2ccccn2)n1 [compound 356, 4-[4-[(1S)-2-amino-1-hydroxyethyl]pyrazol-1-yl]-3-(2-methyl-6-pyridin-2-ylpyrimidin-4-yl)oxybenzonitrile] | 10 to 1000
Cc1cc(Oc2cc(C#N)ccc2-c2ccc(OC3CNC3)cn2)cc(N2CCOCC2)n1 [compound 564, 4-[5-(azetidin-3-yloxy)pyridin-2-yl]-3-(2-methyl-6-morpholin-4-ylpyridin-4-yl)oxybenzonitrile] | 10 to 1000
N#Cc1ccc(-c2ccc(CCN)nc2)c(Oc2cc(N3CCOCC3)cnn2)c1 [Compound 80, 4-[6-(2-aminoethyl)pyridin-3-yl]-3-(5-morpholin-4-ylpyridazin-3-yl)oxybenzonitrile] | > 1000
Cc1c(Oc2cc(F)ccc2-c2ncc(CCN)cn2)cnn1CC(F)(F)F [compound 970, 2-[2-[4-fluoro-2-[5-methyl-1-(2,2,2-trifluoroethyl)pyrazol-4-yl]oxyphenyl]pyrimidin-5-yl]ethanamine] | > 1000
Cn1nc(-c2ccccc2)cc1Oc1cc(C#N)ccc1-c1ccc(CCCN)cc1 [compound 579, 4-[4-(3-aminopropyl)phenyl]-3-(2-methyl-5-phenylpyrazol-3-yl)oxybenzonitrile] | 10 to 1000
Cc1nn(CC(C)C)cc1Cc1cc(F)ccc1-c1ncc(CCN)cn1 [compound 1224, 2-[2-[4-fluoro-2-[[3-methyl-1-(2-methylpropyl)pyrazol-4-yl]methyl]phenyl]pyrimidin-5-yl]ethanamine] | 10 to 1000
Cn1nc(C2CC2)cc1Oc1cc(C#N)ccc1-c1cc(NCCCO)ccn1 [compound 586, 3-(5-cyclopropyl-2-methylpyrazol-3-yl)oxy-4-[4-(3-hydroxypropylamino)pyridin-2-yl]benzonitrile] | > 1000
